The target in test [1] is T1, AChE from electric eel (Electrophorus electricus, UniProt O42275).
T1 construct: purchased Sigma, St. Louis, MO, USA
Nature of the test: biochemical. To be noted: mean ± SD, n = three experiments; 25 °C, PBS pH 7.4, substrate ATCh 40 μM.

In test [2] the target is T2, BChE from equine serum (Equus caballus, UniProt P81908).
T2 construct: BChE (from equine serum); purchased Sigma, St. Louis, MO, USA; host or cells: equine serum
Nature of the test: In vitro BChE inhibition, modified Ellman's method. It is filed as biochemical. To be noted: for SI (index selectivity) = IC50 (AChE)/IC50 (BChE): higher value = higher selectivity to BChE. (Ellman's reagent forms a yellow product with free thiols.)

T1 sequence (O42275 24-633): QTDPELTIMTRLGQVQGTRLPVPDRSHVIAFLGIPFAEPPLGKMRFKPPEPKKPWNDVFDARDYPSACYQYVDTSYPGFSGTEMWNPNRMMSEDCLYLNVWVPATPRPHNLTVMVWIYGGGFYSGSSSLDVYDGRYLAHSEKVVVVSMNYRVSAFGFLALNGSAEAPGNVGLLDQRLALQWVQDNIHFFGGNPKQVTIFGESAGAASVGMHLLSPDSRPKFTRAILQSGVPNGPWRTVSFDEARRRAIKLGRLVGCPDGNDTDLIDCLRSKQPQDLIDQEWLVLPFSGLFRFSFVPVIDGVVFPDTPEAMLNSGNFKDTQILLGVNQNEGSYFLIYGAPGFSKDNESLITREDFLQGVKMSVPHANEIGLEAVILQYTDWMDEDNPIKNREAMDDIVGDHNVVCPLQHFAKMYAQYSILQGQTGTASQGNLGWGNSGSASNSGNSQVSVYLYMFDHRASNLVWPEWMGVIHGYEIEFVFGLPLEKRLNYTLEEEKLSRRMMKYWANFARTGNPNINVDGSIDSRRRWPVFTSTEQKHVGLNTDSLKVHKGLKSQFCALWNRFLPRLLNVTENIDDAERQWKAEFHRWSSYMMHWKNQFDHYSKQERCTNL
T2 sequence (P81908 whole entry): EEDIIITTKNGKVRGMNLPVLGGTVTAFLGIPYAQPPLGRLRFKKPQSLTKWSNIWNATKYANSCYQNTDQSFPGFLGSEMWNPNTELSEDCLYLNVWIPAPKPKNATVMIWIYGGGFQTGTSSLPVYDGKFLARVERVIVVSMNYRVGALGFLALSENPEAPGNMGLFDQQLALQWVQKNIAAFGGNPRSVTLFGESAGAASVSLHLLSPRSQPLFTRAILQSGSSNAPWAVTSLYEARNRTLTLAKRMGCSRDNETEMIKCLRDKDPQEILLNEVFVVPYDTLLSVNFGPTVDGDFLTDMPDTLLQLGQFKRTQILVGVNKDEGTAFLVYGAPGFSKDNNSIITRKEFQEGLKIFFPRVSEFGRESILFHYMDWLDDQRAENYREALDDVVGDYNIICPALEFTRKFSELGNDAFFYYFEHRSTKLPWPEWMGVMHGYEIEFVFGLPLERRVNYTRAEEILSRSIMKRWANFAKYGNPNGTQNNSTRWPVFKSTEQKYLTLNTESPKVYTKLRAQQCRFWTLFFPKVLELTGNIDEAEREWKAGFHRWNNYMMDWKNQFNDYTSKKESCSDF

Take `CCN(C(=O)OC)C(C)C(=O)c1ccccc1` (stereo not drawn) [Compound 1, Methyl ethyl(1-oxo-1-phenylpropan-2-yl)carbamate]: the IC50 in test [1] was 245.3 ± 0.75 µM; in test [2], 227.9 ± 0.9 µM. Moreover, the “SI (index selectivity) = IC50 (AChE)/IC50 (BChE)” value (“SI (index selectivity) = IC50” below) in test [2] came out at 1.08.
The molecule `CCC(C(=O)c1ccccc1)N(C)C(=O)OC` (stereo not drawn) [Compound 2, Methyl methyl(1-oxo-1-phenylbutan-2-yl)carbamate] registered an IC50 in test [1] of 329 ± 9.72 µM. In test [2], the IC50 is 441 ± 7.54 µM and the “SI (index selectivity) = IC50” value came to 0.75.
In the same order, the values of `CCC(C(=O)c1ccccc1)N(CC)C(=O)OC` (stereo not drawn) [Compound 3, Methyl ethyl(1-oxo-1-phenylbutan-2-yl)carbamate] are 273.7 ± 2.16 µM, 363 ± 7.41 µM and 0.75.
In test [1], `COC(=O)N(C)C(C)C(=O)c1cccc(C)c1` (stereo not drawn) [Compound 4, Methyl methyl(1-oxo-1-(m-tolyl)propan-2-yl)carbamate] had an IC50 of 134 ± 2.3 µM. In test [2], it took 116 ± 2.16 µM to reach half-maximal inhibition (IC50) and the “SI (index selectivity) = IC50” value is 1.16.
In the same order, the values of `COC(=O)N(C)C(C)C(=O)c1cccc(Cl)c1` (stereo not drawn) [Compound 5, Methyl (1-(3-chlorophenyl)-1-oxopropan-2-yl)(methyl)carbamate] are 330 ± 42.1 µM, 113.6 ± 0.29 µM and 2.90.
In the same order, the values of `COC(=O)N(C)C(C)C(=O)c1ccc(OC)cc1` (stereo not drawn) [Compound 6, Methyl (1-(4-methoxyphenyl)-1-oxopropan-2-yl)(methyl)carbamate] are 147 ± 1.51 µM, 186.6 ± 1.55 µM and 0.79.
Molecule `COC(=O)N(C)C(C)C(=O)c1ccc(C)cc1` (stereo not drawn) [Compound 7, Methyl methyl(1-oxo-1-(p-tolyl)propan-2-yl)carbamate] displayed an IC50 in test [1] of 50.6 ± 0.63 µM. Further, in test [2], the IC50 worked out at 181 ± 12 µM and the “SI (index selectivity) = IC50” value worked out at 0.28.
In test [1], `COC(=O)N(C)C(C)C(=O)c1ccc(Cl)cc1` (stereo not drawn) [Compound 8, Methyl (1-(4-chlorophenyl)-1-oxopropan-2-yl)(methyl)carbamate] displayed an IC50 of 309 ± 6.16 µM. For the same molecule, in test [2], half-maximal inhibition (IC50) was put at 132 ± 4.55 µM and the “SI (index selectivity) = IC50” value is listed as 2.35.
In the same order, the values of `COC(=O)N(C)C(C)C(=O)c1ccc(Br)cc1` (stereo not drawn) [Compound 9, Methyl (1-(4-bromophenyl)-1-oxopropan-2-yl)(methyl)carbamate] are 282.7 ± 0.71 µM, 224.1 ± 2.19 µM and 1.26.
In the same order, the values of `COC(=O)N(C)C(C)C(=O)c1ccc2c(c1)OCO2` (stereo not drawn) [Compound 10, Methyl (1-(benzo[d][1,3]dioxol-5-yl)-1-oxopropan-2-yl)(methyl)carbamate] are 225 ± 2.72 µM, 194.9 ± 1.93 µM and 1.16.
`CCN(C(=O)Oc1ccccc1)C(C)C(=O)c1ccccc1` (stereo not drawn) [Compound 11, Phenyl ethyl(1-oxo-1-phenylpropan-2-yl)carbamate]: the IC50 in test [1] was 167 ± 1.75 µM; in test [2], 27.6 ± 0.55 µM. Moreover, the “SI (index selectivity) = IC50” value in test [2] is on record as 6.03.
The like results for `CCC(C(=O)c1ccccc1)N(C)C(=O)Oc1ccccc1` (stereo not drawn) [Compound 12, Phenyl methyl(1-oxo-1-phenylbutan-2-yl)carbamate] were, in that order, 179 ± 6.21 µM, 53 ± 1.06 µM and 3.38.
In the same order, the values of `CCC(C(=O)c1ccccc1)N(CC)C(=O)Oc1ccccc1` (stereo not drawn) [Compound 13, Phenyl ethyl(1-oxo-1-phenylbutan-2-yl)carbamate] are 95.7 ± 5.37 µM, 15.62 ± 0.06 µM and 6.13.
Regarding `CCCC(C(=O)c1ccccc1)N(C)C(=O)Oc1ccccc1` (stereo not drawn) [Compound 14, Phenyl methyl(1-oxo-1-phenylpentan-2-yl)carbamate], the IC50 is 97.97 ± 0.36 µM in test [1] and 16.55 ± 0.13 µM in test [2]. Further, the “SI (index selectivity) = IC50” value in test [2] is 5.92.
In the same order, the values of `Cc1cccc(C(=O)C(C)N(C)C(=O)Oc2ccccc2)c1` (stereo not drawn) [Compound 15, Phenyl methyl(1-oxo-1-(m-tolyl)propan-2-yl)carbamate] are 166 ± 2.75 µM, 48.29 ± 0.31 µM and 3.43.
For the molecule `CC(C(=O)c1cccc(Cl)c1)N(C)C(=O)Oc1ccccc1` (stereo not drawn) [Compound 16, Phenyl (1-(3-chlorophenyl)-1-oxopropan-2-yl)(methyl)carbamate], the figures for the IC50 in test [1] and in test [2] were 109 ± 1.1 µM and 14.81 ± 0.01 µM, respectively. Also, the “SI (index selectivity) = IC50” value in test [2] amounted to 7.35.
The like results for `COc1ccc(C(=O)C(C)N(C)C(=O)Oc2ccccc2)cc1` (stereo not drawn) [Compound 17, Phenyl (1-(4-methoxyphenyl)-1-oxopropan-2-yl)(methyl)carbamate] were, in that order, 90.21 ± 0.73 µM, 106 ± 1.94 µM and 0.85.
In the same order, the values of `Cc1ccc(C(=O)C(C)N(C)C(=O)Oc2ccccc2)cc1` (stereo not drawn) [Compound 18, Phenyl methyl(1-oxo-1-(p-tolyl)propan-2-yl)carbamate] are 139 ± 1.45 µM, 87.6 ± 2.37 µM and 1.58.
The like results for `CC(C(=O)c1ccc(Cl)cc1)N(C)C(=O)Oc1ccccc1` (stereo not drawn) [Compound 19, Phenyl (1-(4-chlorophenyl)-1-oxopropan-2-yl)(methyl)carbamate] were, in that order, 44.2 ± 2.35 µM, 38.96 ± 0.28 µM and 1.14.
In turn, `CC(C(=O)c1ccc(Br)cc1)N(C)C(=O)Oc1ccccc1` (stereo not drawn) [Compound 20, Phenyl (1-(4-bromophenyl)-1-oxopropan-2-yl)(methyl)carbamate] gave an IC50 in test [1] of 51.5 ± 1.38 µM. In addition, in test [2], the IC50 worked out at 44.1 ± 1.71 µM and the “SI (index selectivity) = IC50” value amounted to 1.17.
The like results for `Cc1ccc(C(=O)C(C)N(C)C(=O)Oc2ccccc2)cc1C` (stereo not drawn) [Compound 21, Phenyl (1-(3,4-dimethylphenyl)-1-oxopropan-2-yl)(methyl)carbamate] were, in that order, 47.9 ± 2.09 µM, 26.41 ± 0.05 µM and 1.82.
`CC(C(=O)c1ccc2c(c1)OCO2)N(C)C(=O)Oc1ccccc1` (stereo not drawn) [Compound 22, Phenyl (1-(benzo[d][1,3]dioxol-5-yl)-1-oxopropan-2-yl)(methyl)carbamate] returned a concentration for half-maximal inhibition (IC50) in test [1] of 84 ± 0.43 µM. Moreover, in test [2], half-maximal inhibition (IC50) required 53.6 ± 0.72 µM and the “SI (index selectivity) = IC50” value came to 1.57.
The like results for `CCN(C(=O)OCc1ccccc1)C(C)C(=O)c1ccccc1` (stereo not drawn) [Compound 23, Benzyl ethyl(1-oxo-1-phenylpropan-2-yl)carbamate] were, in that order, 158.4 ± 0.87 µM, 11.37 ± 0.05 µM and 13.93.
In test [1], `CCC(C(=O)c1ccccc1)N(C)C(=O)OCc1ccccc1` (stereo not drawn) [Compound 24, Benzyl methyl(1-oxo-1-phenylbutan-2-yl)carbamate] came in with an IC50 of 104 ± 2.91 µM. Also, in test [2], half-maximal inhibition (IC50) required 21.4 ± 0.26 µM and the “SI (index selectivity) = IC50” value was 4.87.
The like results for `CCC(C(=O)c1ccccc1)N(CC)C(=O)OCc1ccccc1` (stereo not drawn) [Compound 25, Benzyl ethyl(1-oxo-1-phenylbutan-2-yl)carbamate] were, in that order, 119 ± 1.23 µM, 21.3 ± 0.48 µM and 5.61.
The like results for `CCCC(C(=O)c1ccccc1)N(C)C(=O)OCc1ccccc1` (stereo not drawn) [Compound 26, Benzyl methyl(1-oxo-1-phenylpentan-2-yl)carbamate] were, in that order, 134.7 ± 0.7 µM, 16.3 ± 0.17 µM and 8.26.
In the same order, the values of `Cc1cccc(C(=O)C(C)N(C)C(=O)OCc2ccccc2)c1` (stereo not drawn) [Compound 27, Benzyl methyl(1-oxo-1-(m-tolyl)propan-2-yl)carbamate] are 83.3 ± 2.49 µM, 12.5 ± 0.24 µM and 6.67.
Take `CC(C(=O)c1cccc(Cl)c1)N(C)C(=O)OCc1ccccc1` (stereo not drawn) [Compound 28, Benzyl (1-(3-chlorophenyl)-1-oxopropan-2-yl)(methyl)carbamate]: the IC50 in test [1] is 84.4 ± 2.27 µM. Also, in test [2], the IC50 amounted to 5.51 ± 0.2 µM and the “SI (index selectivity) = IC50” value was determined as 15.31.
The like results for `COc1ccc(C(=O)C(C)N(C)C(=O)OCc2ccccc2)cc1` (stereo not drawn) [Compound 29, Benzyl (1-(4-methoxyphenyl)-1-oxopropan-2-yl)(methyl)carbamate] were, in that order, 62.6 ± 0.65 µM, 57.39 ± 0.02 µM and 1.09.
The like results for `Cc1ccc(C(=O)C(C)N(C)C(=O)OCc2ccccc2)cc1` (stereo not drawn) [Compound 30, Benzyl methyl(1-oxo-1-(p-tolyl)propan-2-yl)carbamate] were, in that order, 40.06 ± 0.01 µM, 26.4 ± 0.4 µM and 1.52.
The like results for `CC(C(=O)c1ccc(Cl)cc1)N(C)C(=O)OCc1ccccc1` (stereo not drawn) [Compound 31, Benzyl (1-(4-chlroophenyl)-1-oxopropan-2-yl)(methyl)carbamate] were, in that order, 52.83 ± 0.34 µM, 7.02 ± 0.15 µM and 7.53.
Turning to `CC(C(=O)c1ccc(Br)cc1)N(C)C(=O)OCc1ccccc1` (stereo not drawn) [Compound 32, Benzyl (1-(4-bromophenyl)-1-oxopropan-2-yl)(methyl)carbamate], in test [1], half-maximal inhibition (IC50) required 32 ± 0.54 µM. For the same molecule, in test [2], the IC50 was determined as 11.3 ± 0.15 µM and the “SI (index selectivity) = IC50” value is 2.84.
In the same order, the values of `Cc1ccc(C(=O)C(C)N(C)C(=O)OCc2ccccc2)cc1C` (stereo not drawn) [Compound 33, Benzyl (1-(3,4-dimethylphenyl)-1-oxopropan-2-yl)(methyl)carbamate] are 76.8 ± 2.76 µM, 16.9 ± 0.22 µM and 4.55.

The term IC50 denotes the concentration that gives 50% inhibition.

Source of the values: PMC6479915, “Novel Benzene-Based Carbamates for AChE/BChE Inhibition: Synthesis and Ligand/Structure-Oriented SAR Study” (International Journal of Molecular Sciences, 2019).
